Assay results reported in US20190048052A1, “ANTI-MICROBIAL PEPTIDES AND COATINGS” (Board of Regents of the University of Nebraska, priority 2016, published 2019).
In brackets after ≈: the same amount, converted by molar mass. Residues, ends and D or L forms follow the SMILES beside them.

Key:
[1] = tested on: S. aureus USA300; type: cell-based, Staphylococcus aureus
Procedure: (§1) The antimicrobial activity of peptides was evaluated using a standard broth microdilution protocol. In brief, exponential phase bacteria at 10^6 CFU were incubated with serially diluted peptides overnight for ˜20 hours at 37° C. The plates were read on a ChroMate® 4300 Microplate Reader at 630 nm (GMI, Ramsey, Minn.).

[2] = tested on: E. coli ATCC 25922; type: cell-based, Escherichia coli; conditions: ATCC 25922, 20 h
Procedure: as §1

[3] = tested on: human red blood cells; assay: Hemolytic ability (Example 3); type: cell-based; conditions: concentration that causes 50% hemolysis
Procedure: Hemolytic analysis of selected peptides was performed using an established protocol. Briefly, human blood cells (UNMC Blood Bank) were washed three times with phosphate buffer saline (PBS) and diluted to a 2% solution. After peptide treatment, incubation at 37° C. for one hour, and centrifugation at 13,000 rpm, aliquots of the supernatant were transferred to a fresh 96-well microplate. To assess peptide cytotoxicity, the amount of hemoglobin released was measured at 545 nm. The percent lysis was calculated by assuming 100% release when human blood cells were treated with 1% TRITON™ X-100, and 0% release when incubated with PBS buffer.

[4] = tested on: S. aureus USA300; assay: Growth inhibition in TSB media (FIG. 15A); type: cell-based, Staphylococcus aureus; conditions: 3.1 μM (printed 3.1 LM), 37° C.
Procedure: FIGS. 15A and 15B show the growth inhibition (FIG. 15A) and propidium iodide-based membrane permeation (FIG. 15B) of S. aureus USA300 in TSB media by 3.1 μM of TetraF2W-RR and its single arginine variants (Table 8) at 37° C. with shaking at 100 rpm.
Fluorescence spectroscopy was also used to follow bacterial killing. In brief, μL of serially diluted 10× peptide concentrations were done in 96-well coming COSTAR microtiter plates. Propidium iodide at a fixed concentration of 20 μM per well was added to each well which was finally incubated with 88 μL of S. aureus USA300 (with a final OD600 0.1) with continuous shaking at 100 rpm with meander corner well shaking, 37° C. in a FLUOstar® Omega (BMG LABTECH Inc., NC) microplate reader. The plates were read every 5 minutes for a total duration of 2 hours with excitation and emission wavelengths at 584 nm and 620 nm, respectively.

[5] = tested on: S. aureus USA300; assay: Live cell penetration experiment (FITC, confocal); type: cell-based, Staphylococcus aureus; conditions: peptide and FITC 12.5 μM
Procedure: The entrance of a fluorescent dye into live bacterial cells was followed by confocal microscopy (Mishra et al. (2015) RSC Advances 5:59758-59769). In short, S. aureus USA300 was grown to the exponential phase from the overnight culture. The cells were then washed twice with fresh 1×PBS (pH 7.2) and the final cell density was adjusted to 1×10^8 CFU/mL. 1500 μL of the culture was added to the chambers of cuvettes (borosilicate cover glass systems) with equimolar concentrations of TetraF2W-RK and fluorescein isothiocyanate FITC (12.5 μM). The samples were examined with a confocal laser scanning microscope (Zeiss 710) with a series of live time pictures taken at every 5 seconds for 5 minutes and the data were processed using Zen 2010 software.

[6] = tested on: S. aureus USA300; type: cell-based, Staphylococcus aureus; conditions: 12.5 μM
Procedure: Two types of experiments were conducted to evaluate the anti-biofilm activity of these peptides against S. aureus USA300 grown under a static condition for 24 hours to form established biofilms in presence of tryptic soy broth (TSB). The experiment was set up using a flat bottom, 96-well, polystyrene microtiter plates (Corning, COSTAR). In short, S. aureus USA300 (10^5 CFU/mL) in fresh TSB media was made from an exponentially growing culture. 200 μL of this bacterial culture was added to each well of the microtiter plates. The plates are then incubated at 37° C. for 24 hours to allow biofilm formation. Media was then carefully removed followed by washing with sterile 1×PBS to remove any unattached bacteria. Solution containing μL of 10× peptide solution and 180 μL of fresh TSB were added. The plates were again incubated at 37° C. for another 24 hours. To measure the extent of biofilm disruption by the peptides as a function of biofilm reduction, crystal violet staining was performed. Media was pipetted out and the wells were carefully washed with 200 μL of PBS to remove the loosely attached cells. Subsequently, 200 μL of 99% methanol was added for fixation and the plates were allowed to sit for 15 minutes. The plates were finally aspirated and dried. Lastly, staining was done with 200 μL of 1% crystal violet in water for 5 minutes. Excess stain was gently rinsed off with tap water, and plates were air-dried. Further, stains were solubilized in 200 μL of 33% glacial acetic acid followed by colorimetric measurement at 600 nm on a Chromate® microtiter plate reader. The amounts of biofilm growth with and without compound treatments were calculated.
In addition, live cell contents of the peptide acted biofilms was estimated by XTT [2,3-bis(2-methyloxy-4-nitro-5-sulfophenyl)-2H-tertazolium-5-carboxanilide]assay by following the manufacturer's instructions with modifications. A 10% XTT solution in TSB media was added to each well and the plates were again incubated for 2 hours at 37° C. Absorbance at 450 nm (only media with XTT containing wells served as the blank) was obtained using Chromate® microtiter plate reader. Percentage of biofilm reduction for the peptide was plotted assuming 100% biofilm growth is achieved on the bacterial wells without peptide treatment.

[7] = tested on: S. aureus USA300; assay: Confocal microscopy of preformed biofilms (Example 3); type: cell-based, Staphylococcus aureus
Procedure: S. aureus USA300 (10^5 CFU/mL) was made from exponentially growing bacteria. 1800 μL was added to the chamber of cuvettes (Borosilicate cover glass systems), and was incubated for 37° C., 24 hours for biofilm formation. Media was then pipetted out and chambers were washed with 1×PBS to remove non-adhered cells. To disrupt the preformed biofilms, 200 μL of 10× stocks of the peptide was added followed by 1800 μL of TSB. Control cuvettes contained water instead of peptide. The cuvettes were again incubated for another 24 hours at 37° C. Subsequently, the supernatant was pipetted out and the chambers were washed with 1×PBS. For evaluation under confocal microscope the biofilms were stained with 10 μL of LIVE/DEAD® kit (Invitrogen Molecular Probes) according to the manufacturer's instructions. The samples were examined with a confocal laser scanning microscope (Zeiss 710) and the data processed using Zen 2010 software.

[8] = tested on: E. faecium ATCC51559; type: cell-based, Enterococcus faecium; conditions: ATCC51559
Procedure: (§2) Bacterial strains used in this study included Enterococcus faecium ATCC51559, Staphylococcus aureus USA300 LAC, Klebsiella pneumoniae ATCC 13883, Acinetobacter baumannii B2367-12, Pseudomonas aeruginosa PAO1, Enterobacter cloacae B2366-12 and Escherichia coli ATCC 25922, wherein the first six constituting the ESKAPE pathogens. Tryptic soy broth (TSB) for bacterial growth was obtained from BD Bioscience (Sparks, Md.).
(§3) The antibacterial activity of peptides was evaluated using a standard broth microdilution protocol as described (Wang et al. (2012) Antimicrob. Agents Chemother., 56:845-856). In brief, 5 μl of each bacterium (stored at −80° C.) were inoculated into TSB medium (2 ml) and grown overnight. A second inoculation was made in the morning by delivering 10 μl of the overnight culture to a fresh TSB medium. After 2-3 hours growth at 37° C., 225 rpm, logarithmic phase bacterial cultures (OD600≈0.5) were diluted and partitioned into a 96-well polystyrene microplate with ˜10^5 colony forming units (CFU) per well (90 μl aliquots). After treatment with 10 μl of peptide solutions at various concentrations, microplates were incubated at 37° C. overnight and read on a ChroMate® 4300 Microplate Reader at 630 nm (GMI, Ramsey, Minn.). The medium was used as a blank where no bacteria should grow.

[9] = tested on: S. aureus USA300 LAC; type: cell-based, Staphylococcus aureus; conditions: USA300
Procedure: as §2, §3

[10] = tested on: A. baumannii B2367-12; type: cell-based, Acinetobacter baumannii; conditions: B2367-12
Procedure: as §2, §3

[11] = tested on: P. aeruginosa PAO1; type: cell-based, Pseudomonas aeruginosa; conditions: PAO1
Procedure: as §2, §3

[12] = tested on: E. cloacae B2366-12; type: cell-based, Enterobacter cloacae; conditions: B2366-12
Procedure: as §2, §3

[13] = tested on: E. coli ATCC 25922; type: cell-based, Escherichia coli; conditions: ATCC 25922
Procedure: as §2, §3

[14] = tested on: ESKAPE pathogens; type: cell-based
Procedure: as §2, §3

[15] = Cytotoxicity of soluble peptide (MTS); type: cell-based; conditions: human, HaCaT cells; free peptide; read-out: 50% lethal concentration (LC50) to HaCaT cells
Procedure: In vitro spontaneously transformed keratinocytes from histologically normal human skin (HaCaT cells) from Fisher (Hampton, N.H.) (Cat # T0020001) were maintained in DMEM high glucose medium with 4 mM L-glutamine (HyClone, South Logan, Utah) and 100 U ml^−1 penicillin, 100 μg ml^−1 streptomycin (pen/strep, p/s) (Life Technologies, Carlsbad, Calif.), and 10% (v v^−1) inactivated fetal bovine serum (FBS, NyClone), DMEM with 10% FBS, p/s. Cells were grown in 5% CO2 at 37° C. and were detached from culturing dish at 100% confluency by treating with 0.025% trypsin-EDTA (NyClone), seeded (100,000 cells well^−1) in 24-well plates (Corning Life Science, Salt Lake City, Utah) and grown overnight in 200 μl of DMEM medium to reach a 70% confluency. The peptide-coated surfaces (1.0×1.0 cm) were placed in a 24-well plate DMEM with or without 10% FBS, p/s for 1 hour. Samples were taken out and 60 μl of CellTiter96® MTS were added. Plates were further incubated for another 2 hours at 37° C. Subsequently, 100 μl of the solution were placed in a clean 96-well plate to measure the absorbance at 492 nm on a ChroMate® reader (GMI). For comparison, the toxicity of the soluble peptides was also measured and they were treated in the same way as described above. The culture medium and a 0.2% SDS solution were used as negative and positive controls, respectively.

[16] = tested on: human red blood cells (hRBC); type: cell-based; conditions: red cells of human
Procedure: Blood was obtained from the Blood Bank of the University of Nebraska Medical Center (UNMC) and washed three times (800 g, 10 minutes) with normal saline to remove plasma. A final solution containing 2% human red blood cells (hRBC) was then prepared in normal saline and used for the assay. 90 μl of this solution were added to 10 μl of serially diluted peptide solutions and incubated at 37° C. for 1 hour. It was then centrifuged at 15,700 g for 5 minutes on an Eppendorf® bench-top centrifuge 5415D. Aliquots of the supernatant (˜80 μl) were carefully transferred to a fresh 96-well microplate (Costar, Corning, N.Y.) and absorbance was read at 545 nm to detect the amount of hemoglobin released. Percent lysis was calculated based on the extent of hemoglobin released, where 100% release is assumed in the presence of 1% TRITON™ X-100 and 0% release is assumed in saline.

SMILES	cell selectivity index (ratio of HL50 and MIC) ([1]; HL50 human red blood cells / MIC S. aureus USA300)	S. aureus (MIC) ([1]; USA300, 20 h) [µM]	E. coli (MIC) [2] [µM]	HL50 [3] [µM]	growth inhibition of S. aureus USA300 [4]	time to entry of FITC into bacteria after peptide treatment [5] [s]	killing in preformed biofilms (XTT) [6] [%]	killing in 24 hour preformed biofilms (LIVE/DEAD confocal) [7]	MIC EF [8] [µM]	MIC SA [9] [µM]	MIC AB [10] [µM]	MIC PA [11] [µM]	MIC ECl [12] [µM]	MIC EC [13] [µM]	MIC range against almost all / most of the tested strains [14] [µM]	CC50 at 1 hour [15] [µM]	50% hemolytic concentration (HL50) [16] [µM]
CC(C)C[C@H](NC(=O)[C@H](Cc1c[nH]c2ccccc12)NC(=O)[C@H](Cc1c[nH]c2ccccc12)NC(=O)[C@@H](N)Cc1c[nH]c2ccccc12)C(=O)N[C@@H](CCCNC(=N)N)C(=O)N[C@@H](CCCNC(=N)N)C(=O)N[C@@H](CCCNC(=N)N)C(=O)N[C@@H](Cc1c[nH]c2ccccc12)C(N)=O [Peptide I7R, WWWLRRRW] (H-WWWLRRRW-NH2; N-terminus assumed)	48	3.1	6.2	150	almost equally effective to the WT	28	80	the majority of cells are red	–	–	–	–	–	–	–	–	–
CC[C@H](C)[C@H](NC(=O)[C@H](CCCNC(=N)N)NC(=O)[C@H](CCC(N)=O)NC(=O)[C@@H](NC(=O)[C@@H](NC(=O)[C@H](CCCNC(=N)N)NC(=O)[C@H](CCCCN)NC(=O)[C@@H](N)Cc1ccccc1)[C@@H](C)CC)C(C)C)C(=O)N[C@@H](CCCCN)C(=O)N[C@@H](CC(=O)O)C(=O)N[C@@H](Cc1ccccc1)C(=O)N[C@@H](CC(C)C)C(=O)N[C@@H](CCCNC(=N)N)C(=O)N[C@@H](CC(N)=O)C(=O)N[C@@H](CC(C)C)C(=O)N[C@H](C(=O)N[C@@H](CS)C(=O)O)C(C)C [FK-16Cys] (H-FKRIVQRIKDFLRNLVC-OH; N-terminus and C-terminus assumed)	–	–	–	–	–	–	–	–	12.5 ± 0 (≈ 26.9 µg/mL)	18 ± 7.2 (≈ 38.7 µg/mL)	12.5 ± 0 (≈ 26.9 µg/mL)	>50	50 ± 0 (≈ 107 µg/mL)	37.5 ± 17.6 (≈ 80.6 µg/mL)	12.5 to 50	> 100	~35
